One block for each compound: values may come before it. Positions of bridges follow the written chain, without caps; N, C: chain ends. Residues, ends and D or L forms follow the SMILES beside them.
Assays:
IGFBP-3 [1] = target: T1, IGFBP-3 (Homo sapiens, UniProt P17936); experiment: BIACORE competition assay: IGFBP-3 binding to immobilized IGF-1
T1 construct: made in house
Protocol: IGF-1 was immobilized on a dextran chip for inhibition assays using a BIACORE™ 2000 surface-plasmon-resonance device (BIAcore, Inc., Piscataway, N.J.) to measure free binding protein. IGF-1 was biotinylated as described above, and injected over a chip to which streptavidin had been coupled (BIAcore, Inc.) to give 400 to 800 RU (response units) of immobilized IGF-1. […] Serial dilutions of peptide were mixed with a constant concentration (40 nM) of IGFBP-3. After incubation for >1 hour at room temperature, an aliquot of 20 μL was injected at a flow rate of 20 μL/min over the IGF-1 chip. Following the injection, a response reading was taken to measure the relative amount of IGFBP-3 bound to the IGF-1.

IGFBP-3 [2] = target: T1, IGFBP-3; experiment: radiolabeled IGF-1 plate assay, IGFBP-3 plate; format: binding
Protocol: (§1) As an additional assay of peptide activity, several peptides were tested in an assay using ^125I-labeled IGF-1 to measure inhibition of IGFBP binding, as described above (Assay 3). Serial dilutions of peptide were added to an IGFBP-1 or an IGFBP-3 plate. Thereafter, ^125I-labeled IGF-1 was added and the plates were incubated for 2 hours. The plates were then washed and counted to determine the amount of bound IGF-1.

IGFBP-1 [3] = target: T2, IGFBP-1 (Homo sapiens, UniProt P08833); experiment: radiolabeled IGF-1 plate assay, IGFBP-1 plate; format: binding; parameters: made in house; host or cells: CHO cells
T2 sequence (P08833 26-259): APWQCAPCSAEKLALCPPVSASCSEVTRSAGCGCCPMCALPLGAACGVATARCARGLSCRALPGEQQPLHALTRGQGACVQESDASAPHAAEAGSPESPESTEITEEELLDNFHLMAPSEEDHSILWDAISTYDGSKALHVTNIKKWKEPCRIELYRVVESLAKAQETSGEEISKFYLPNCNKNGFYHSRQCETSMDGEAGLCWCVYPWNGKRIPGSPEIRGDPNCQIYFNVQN
Protocol: as §1

[4] = test system: human articular cartilage explants; experiment: human articular cartilage explants from diseased joints: matrix synthesis (35S-sulfate uptake); format: cell-based; details: for matrix synthesis in diseased human articular cartilage: 40 ng/ml
Protocol: (§2) The metacarpophalangeal joint of a six-month old pig was cultured as described above for bovine articular cartilage in Example 8. This explant was cultured in media alone or in media with D12K, D12R, or wild-type IGF-1 (at 10 nM) alone or in the presence of IL-1α at 1 ng/ml, as described above. Human explants were from patients undergoing joint replacement surgery. Articular cartilage was harvested, aliquoted (40-45 mg/tube) and cultured as above. […] Fresh media was added on days 0, 1, 2, and 3. Matrix breakdown was determined by measuring the amount of proteoglycans in the media using the DMMB assay as set forth above. Matrix (proteoglycan) synthesis was determined by measuring ^35S-sulfate uptake as set forth above.
(§3) Human articular cartilage explants were cultured in media or treated with IGF-1 by itself or in combination with either BP3-40 or BP3-15 at 0.1 mg/ml as set forth above. Matrix breakdown was determined by measuring the release of proteoglycans into media as described above. Matrix synthesis was determined by counting the amount of ^35S-sulfate incorporated into the cartilage tissue as described above.
The same Material and Methods (for human tissue) were used as described above, using articular cartilage explants from human joints removed from patients undergoing joint replacement. These explants were cultured with IGF-1 alone at 40 ng/ml, or IGF-1 with BP1-17, BP3-15, or BP1-16 (0.1 mg/ml), or IGF-1 with buffer (HEPES).

[5] = test system: human articular cartilage explants; experiment: human articular cartilage explants: matrix breakdown (proteoglycan release); format: cell-based; details: peptide 0.1 mg/ml
Protocol: as §2, §3

IGFBP-3 [6] = target: T1, IGFBP-3; experiment: binding curves of phage displaying IGF-1 variants on immobilized IGFBP-1 or IGFBP-3
From the text: Phage particles displaying IGF-1 variants in which the aspartate residue at position 12 was mutated to lysine (D12K) or arginine (D12R) were constructed as described in Dubaquié and Lowman, supra. Furthermore, these protein variants were expressed in E. coli and purified as described in Dubaquié and Lowman, supra.
The wild-type IGF-1 phage particles bound to IGFBP-1 or IGFBP-3 generated similar detection signal intensities.

[7] = test system: porcine articular cartilage explants; experiment: porcine articular cartilage explants: matrix breakdown; format: cell-based, pig; details: 10 nM; for IL-1α-induced matrix breakdown: IL-1α 1 ng/ml
Protocol: as §2

[8] = test system: porcine articular cartilage explants; experiment: porcine articular cartilage explants: matrix synthesis; format: cell-based, pig; details: 10 nM; for IL-1α-induced inhibition of proteoglycan synthesis: IL-1α 1 ng/ml
Protocol: as §2

IGFBP-1 [9] = experiment: competitive phage ELISA of IGF-1 mutants, IGFBP-1; format: binding, human; details: relative IC50 IGFBP-1/relative IC50 IGFBP-3
Summary of the method: (§4)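 Alanine-scan IGF-1 mutants on phage competed with soluble IGFBP-1 or IGFBP-3 (threefold dilutions over six logs, from 5 μM and 500 nM respectively) for binding to plates coated with 1 μg/ml of the same protein in PBS pH 7.2. Incubation was 1 h at room temperature in 0.5% Tween 20/PBS. Bound phage was detected by anti-phage/HRP ELISA; IC50 is the mean±SD of at least two clones.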

IGFBP-3 [10] = target: T1, IGFBP-3; experiment: competitive phage ELISA of IGF-1 mutants, IGFBP-3; format: binding; details: phage display, soluble IGFBP-3 competitor
Summary of the method: as §4

IGFBP-1 [11] = experiment: BIACORE kinetics: IGFBP-1 binding to immobilized IGF-1 variants; parameters: species or system human; details: from relative KD values
Protocol: (§5) The binding affinities of the IGF variants for IGFBP-1 and IGFBP-3 were determined using a BIACORE™-2000 real time kinetic interaction analysis system (Biacore, Inc., Piscataway, N.J.) to measure association (ka) and dissociation (kd) rates. Carboxymethylated dextran biosensor chips (CM5, BIAcore Inc.) were activated with EDC (N-ethyl-N′-(3-dimethylaminopropyl)-carbodiimide hydrochloride) and NHS(N-hydroxysuccinimide) according to the supplier's instructions. For immobilization, IGF mutants in 20 mM sodium acetate, pH 4.8, were injected onto the biosensor chip at a concentration of 50 μg/ml to yield approximately 450-600 RU's (resonance-responce units) of covalently-coupled protein. Unreacted groups were blocked with an injection of 1 M ethanolamine. Kinetic measurements were carried out by injecting two-fold serial dilutions (starting at 1 μM) of either IGFBP-1 or IGFBP-3 in running buffer (PBS, 0.05% TWEEN 20™, 0.1% ovalbumin, 0.1% sodium azide) at 25 °C using a flow rate of 20 μl/min. Association rates (ka) and dissociation rates (kd) were calculated separately using a 1:1 Langmuir™ association model in the BIACORE™ evaluation software v. 3.0. The equilibrium dissociation constant (KD) was calculated as kd/ka.
(§6) For measurements of IGFBP-1 binding to IGF-1, kinetics experiments were conducted using a single-cysteine IGF-1 variant, Y31C, that was immobilized onto the sensor chip surface via a disulfide linkage (BIACORE™ System Manual Supplement, 5a-1, Pharmacia (1991)).

IGFBP-3 [12] = target: T1, IGFBP-3; experiment: BIACORE kinetics: IGFBP-3 binding to immobilized IGF-1 variants; details: 25 C
Protocol: as §5

type I IGF receptor = target: T3, type I IGF receptor (Homo sapiens, UniProt P08069); experiment: KIRA assay of IGF type I receptor activation; format: cell-based; details: about 13 nM or […] variant
T3 construct: monitors the extent of cytoplasmic IGF receptor phosphorylation upon extracellular stimulation by ligand; endogenous in cells; MCF-7 by my knowledge of the cited method
T3 sequence (P08069 31-736 limits assumed): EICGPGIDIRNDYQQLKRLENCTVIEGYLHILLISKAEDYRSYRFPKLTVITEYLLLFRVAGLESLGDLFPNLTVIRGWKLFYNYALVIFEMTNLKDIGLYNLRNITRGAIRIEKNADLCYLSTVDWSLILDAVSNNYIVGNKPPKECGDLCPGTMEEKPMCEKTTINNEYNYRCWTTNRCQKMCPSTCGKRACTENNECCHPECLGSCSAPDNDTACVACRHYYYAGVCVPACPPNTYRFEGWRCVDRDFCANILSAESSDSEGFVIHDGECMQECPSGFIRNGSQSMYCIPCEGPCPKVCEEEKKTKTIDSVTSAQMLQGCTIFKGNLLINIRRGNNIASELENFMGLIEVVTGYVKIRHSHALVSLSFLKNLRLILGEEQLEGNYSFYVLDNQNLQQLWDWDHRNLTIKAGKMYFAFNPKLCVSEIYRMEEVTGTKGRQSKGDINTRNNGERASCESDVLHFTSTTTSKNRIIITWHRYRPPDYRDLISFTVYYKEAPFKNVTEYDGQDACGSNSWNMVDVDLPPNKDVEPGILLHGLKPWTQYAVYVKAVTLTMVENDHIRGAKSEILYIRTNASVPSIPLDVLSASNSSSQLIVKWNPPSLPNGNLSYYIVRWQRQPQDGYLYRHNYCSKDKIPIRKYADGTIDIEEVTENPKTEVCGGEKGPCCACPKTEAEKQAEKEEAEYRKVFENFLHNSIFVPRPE
From the text: The Kinase Receptor Activation Assay (KIRA) specifically and quantitatively monitors the extent of cytoplasmic IGF receptor phosphorylation upon extracellular stimulation by ligand (Sadick et al., J. Pharm. Biomed. Analysis, 19 (6): 883-891 (1999)).

IGFBP-1 [13] = target: T2, IGFBP-1; experiment: competitive phage ELISA of IGF-1 mutants, IGFBP-1; format: binding; parameters: made in house; host or cells: CHO cells; details: phage display, soluble IGFBP-1 competitor
Summary of the method: as §4

IGFBP-1 [14] = target: T2, IGFBP-1; experiment: BIACORE kinetics: IGFBP-1 binding to immobilized IGF-1 variants; parameters: made in house; host or cells: CHO cells; details: 25 C
Protocol: as §5, §6

T1 sequence (P17936 28-291): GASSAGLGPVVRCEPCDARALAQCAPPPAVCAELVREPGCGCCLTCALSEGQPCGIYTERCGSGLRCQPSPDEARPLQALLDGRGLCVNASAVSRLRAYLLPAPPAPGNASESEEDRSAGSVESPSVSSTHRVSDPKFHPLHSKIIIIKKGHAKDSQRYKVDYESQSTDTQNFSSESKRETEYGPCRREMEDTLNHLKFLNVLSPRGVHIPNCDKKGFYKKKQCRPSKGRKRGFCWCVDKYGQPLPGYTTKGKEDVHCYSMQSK

Compound: CC(=O)N[C@@H](CO)C(=O)N[C@@H](CCC(=O)O)C(=O)N[C@@H](CCC(=O)O)C(=O)N[C@H](C(=O)N[C@H]1CSSC[C@@H](C(=O)N[C@@H](CC(N)=O)C(N)=O)NC(=O)[C@H](CC(C)C)NC(=O)[C@H](Cc2ccc(O)cc2)NC(=O)[C@H](Cc2c[nH]c3ccccc23)NC(=O)[C@H](CCC(=O)O)NC(=O)[C@H](C)NC(=O)[C@H](C(C)C)NC(=O)[C@@H]2CCCN2C(=O)[C@H](Cc2c[nH]c3ccccc23)NC1=O)C(C)C [BP3-40] (Ac-SEEVCWPVAEWYLCN-NH2; disulfide 5-14)
matrix synthesis, IGF-1 in combination with peptide ([4]; IGF-1 40 ng/ml, peptide 0.1 mg/ml): to stimulate matrix synthesis
matrix breakdown, IGF-1 in combination with peptide [5]: appeared to enhance the ability of IGF-1 to decrease matrix breakdown

Compound: D12K: IGF-1 variant, aspartate at position 12 mutated to lysine
phage binding signal intensity, IGFBP-3 versus IGFBP-1 (IGFBP-3 [6]): displayed lower signal intensities when binding to IGFBP-3 compared to IGFBP-1
cartilage matrix breakdown [7]: inhibited cartilage matrix breakdown
IL-1α-induced matrix breakdown [7]: inhibited the catabolic effects
matrix synthesis [8]: increased matrix synthesis
IL-1α-induced inhibition of proteoglycan synthesis [8]: prevented IL-1α-induced inhibition of proteoglycan synthesis
matrix synthesis in diseased human articular cartilage [4]: stimulated matrix synthesis in diseased human articular cartilage

Compound: D12R: IGF-1 variant, aspartate at position 12 mutated to arginine
phage binding signal intensity, IGFBP-3 versus IGFBP-1 (IGFBP-3 [6]): displayed lower signal intensities when binding to IGFBP-3 compared to IGFBP-1
cartilage matrix breakdown [7]: inhibited cartilage matrix breakdown
IL-1α-induced matrix breakdown [7]: inhibited the catabolic effects
matrix synthesis [8]: increased matrix synthesis
IL-1α-induced inhibition of proteoglycan synthesis [8]: prevented IL-1α-induced inhibition of proteoglycan synthesis
matrix synthesis in diseased human articular cartilage [4]: stimulated matrix synthesis in diseased human articular cartilage

Continued, in another order:

IC50 (IGFBP-3 [1]): 2000 nM
inhibition of 125I-IGF-1 binding to an IGFBP-3 plate (IGFBP-3 [2]): inhibition
Compound: CSCC[C@H](NC(=O)[C@H](CC(N)=O)NC(=O)[C@@H]1CSSC[C@H](NC(=O)[C@@H](NC(=O)[C@H](CCC(=O)O)NC(=O)[C@H](CCC(=O)O)NC(=O)[C@@H](N)CO)C(C)C)C(=O)N[C@@H](Cc2c[nH]c3ccccc23)C(=O)N2CCC[C@H]2C(=O)N[C@@H](C(C)C)C(=O)N[C@@H](C)C(=O)N[C@@H](CCC(=O)O)C(=O)N[C@@H](Cc2c[nH]c3ccccc23)C(=O)N[C@@H](Cc2ccc(O)cc2)C(=O)N[C@@H](CC(C)C)C(=O)N1)C(=O)N[C@@H](Cc1c[nH]c2ccccc12)C(=O)NCC(=O)O [BP3-01-ox] (H-SEEVCWPVAEWYLCNMWG-OH; disulfide 5-14; N-terminus and C-terminus assumed)
inhibition of 125I-IGF-1 binding to an IGFBP-1 coated plate (IGFBP-1 [3]): did not inhibit IGF-1 binding to an IGFBP-1 coated plate

inhibition of 125I-IGF-1 binding to an IGFBP-3 plate (IGFBP-3 [2]): inhibition
Compound: CSCC[C@@H]1NC(=O)[C@H](Cc2c[nH]c3ccccc23)NC(=O)[C@@H]2CCCN2C(=O)CNC(=O)[C@H](CC(=O)O)NC(=O)[C@H](C)NC(=O)[C@@H](NC(=O)[C@@H](NC(=O)CNC(=O)[C@H](CCSC)NC(=O)[C@@H](N)CC(=O)O)C(C)C)CSSC[C@@H](C(=O)N[C@@H](CCC(=O)O)C(=O)N[C@@H](Cc2c[nH]c3ccccc23)C(=O)N[C@H](C(=O)N[C@@H](CCC(=O)O)C(=O)O)[C@@H](C)O)NC(=O)[C@H](C(C)C)NC(=O)[C@H](Cc2ccc(O)cc2)NC1=O [BP3-02-ox] (H-DMGVCADGPWMYVCEWTE-OH; disulfide 5-14; N-terminus and C-terminus assumed)
inhibition of 125I-IGF-1 binding to an IGFBP-1 coated plate (IGFBP-1 [3]): did not inhibit IGF-1 binding to an IGFBP-1 coated plate

IC50 (IGFBP-3 [10]): 1.32 ± 0.25 nM
Specificity Relative BP-1 / Relative BP-3 (IGFBP-1 [11]): 3.6
Binding to IGFBP-3 ka (IGFBP-3 [12]): 1.1 ± 0.4 ×10^5 M^−1s^−1
IGF type I receptor activation, single-concentration KIRA (type I IGF receptor): retain biological activity
IC50 (IGFBP-1 [13]): 57.8 ± 20.1 nM
Binding to IGFBP-1 ka (IGFBP-1 [14]): 1.9 ± 0.6 ×10^4 M^−1s^−1
Compound: F16A: IGF-1 single alanine mutant
relative specificity (IGFBP-1 [9]): 4.0

IC50 (IGFBP-3 [10]): 3.69 ± 0.25 nM
Specificity Relative BP-1 / Relative BP-3 (IGFBP-1 [11]): 4.9
Binding to IGFBP-3 ka (IGFBP-3 [12]): 1.5 ± 0.5 ×10^5 M^−1s^−1
IGF type I receptor activation, single-concentration KIRA (type I IGF receptor): retain biological activity
IC50 (IGFBP-1 [13]): 181 ± 46 nM
Binding to IGFBP-1 ka (IGFBP-1 [14]): 1.5 ± 0.5 ×10^4 M^−1s^−1
Compound: F25A: IGF-1 single alanine mutant
